According to patent publication US12180214B2, “Crystalline forms of (s)-4-amino-6-((1-(3-chloro-6-phenylimidazo[1,2-b]pyridazine-7-yl)ethyl)amino)pyrimidine-5-carbonitrile as inhibitors of phosphatidylinositol-3-kinase” (HUTCHISON MEDIPHARMA LIMITED, priority 2018, dated 2024):
In brackets after ≈: the same amount, converted by molar mass.

Assays:
Type in all cases: physicochemical
[1] = Hygroscopicity by dynamic vapor sorption (DVS); details: relative humidity of 0-95% at 25° C.
Description: Determination method: the test samples of Form I, Form IV, and Form V of compound of Formula A were placed in the sample dishes of the dynamic vapor sorption instrument (DVS-INTRINSIC) respectively. Then the weight gains by moisture absorption of the samples were measured at a relative humidity of 0-95% at 25° C. The results were shown in FIG. 16, FIG. 17, and FIG. 18.

[2] = Solubility of Form I, Form IV, and Form V in buffers of different pH; details: for solubility at 0.5 hour / solubility at 2 hours: buffer, 37 °C, thermodynamic from solid; for Solubility in the test buffers, conclusion: buffers pH 1.2-6.8, 37° C.
Description: Determination method: excess amount of samples of Form I, Form IV, and Form V of compound of Formula A were suspended in the buffers of different pH respectively. The system was saturated by shaking for a period of time at 37° C. in a water bath of constant temperature. Then the system was filtered, and the filtrate was used for determining solubility of the samples. The buffers of different pH were prepared according to the US pharmacopeia (USP40-NF35).

[3] = Stability of Form I, Form IV, and Form V under high temperature, high humidity and illumination conditions; details: for Stability (chemical purity and crystalline form), conclusion: high temperature, high humidity, and illumination conditions for 10 days
Description: Determination method: the test samples of Form I, Form IV, and Form V of compound of Formula A were placed on the culture dishes respectively, which were uncovered and placed in sealed clean containers. The containers were placed under the conditions of a temperature of 60° C., a temperature of 25° C. and a relative humidity of 92.5%±5%, and an illumination of 4500 lx±500 lx respectively for 10 days. Then sampled, investigated for the purity and crystalline form of the samples, and compared the investigation results.

[4] = Stability of Form IV mixed with excipients (starch, microcrystalline cellulose); details: high temperature, high humidity, and illumination conditions, 30 days
Description: Determination method: 50 mg of samples of Form IV of compound of Formula A were mixed with 200 mg of excipients starch and microcrystalline cellulose respectively. The mixtures were used as Lest samples and placed on the culture dishes respectively, which were uncovered and placed in sealed clean containers. Then the containers were placed under the conditions of a temperature of 60° C., a temperature of 25° C. and a relative humidity of 92.5%±5%, and an illumination of 4500 lx±500 lx respectively for 30 days. Then sampled, investigated for the change of crystalline form of the samples, and compared the investigation results.

[5] = High humidity (92.5% RH), 25° C., 5 days
[6] = High humidity (92.5% RH), 25° C., 10 days
[7] = High temperature (60° C.), 5 days
[8] = High temperature (60° C.), 10 days
[9] = Illumination (4500 Lx), 10 days

Hygroscopicity (weight gain by moisture absorption) [1]	Solubility in the test buffers, conclusion [2]	Chemical purity (%) ([3]; 0 day)	Chemical purity (%) [3, 5]	Chemical purity (%) [3, 6]	Chemical purity (%) [3, 7]	Chemical purity (%) [3, 8]	Chemical purity (%) ([3]; Illumination (4500 Lx), 5 days)	Chemical purity (%) [3, 9]	Stability (chemical purity and crystalline form), conclusion [3]	Compound	further results
non-hygroscopic	good solubility	99.76%	99.65%	99.60%	99.63%	99.63%	99.61%	99.45%	stable	C[C@H](Nc1ncnc(N)c1C#N)c1cc2ncc(Cl)n2nc1-c1ccccc1 [Form I, (S)-4-amino-6-((1-(3-chloro-6-phenylimidazo[1,2-b]pyridazin-7-yl)ethyl)amino)pyrimidine-5-carbonitrile]	solubility at 0.5 hour ([2]; pH 1.2, simulated gastric fluid, buffer pH 1.2, shaken at 37° C. water bath for 0.5 hour): 10800 µg/mL (≈ 27600 µM); solubility at 0.5 hour ([2]; pH 2.1, aqueous buffer, buffer pH 2.1, shaken at 37° C. water bath for 0.5 hour): 800 µg/mL (≈ 2050 µM); solubility at 0.5 hour ([2]; pH 4.5, aqueous buffer, buffer pH 4.5, shaken at 37° C. water bath for 0.5 hour): 40 µg/mL (≈ 102 µM); solubility at 0.5 hour ([2]; pH 6.8, aqueous buffer, buffer pH 6.8, shaken at 37° C. water bath for 0.5 hour): 30 µg/mL (≈ 76.8 µM)
non-hygroscopic	good solubility	99.27%	99.68%	99.68%	99.57%	99.68%	99.59%	99.55%	stable	C[C@H](Nc1ncnc(N)c1C#N)c1cc2ncc(Cl)n2nc1-c1ccccc1 [Form IV, (S)-4-amino-6-((1-(3-chloro-6-phenylimidazo[1,2-b]pyridazin-7-yl)ethyl)amino)pyrimidine-5-carbonitrile]	solubility at 2 hours ([2]; pH 1.2, simulated gastric fluid, buffer pH 1.2, shaken at 37° C. water bath for 2 hours): 8560 µg/mL (≈ 21900 µM); solubility at 2 hours ([2]; pH 2.1, aqueous buffer, buffer pH 2.1, shaken at 37° C. water bath for 2 hours): 500 µg/mL (≈ 1280 µM); solubility at 2 hours ([2]; pH 4.5, aqueous buffer, buffer pH 4.5, shaken at 37° C. water bath for 2 hours): 20 µg/mL (≈ 51.2 µM); solubility at 2 hours ([2]; pH 6.8, aqueous buffer, buffer pH 6.8, shaken at 37° C. water bath for 2 hours): 20 µg/mL (≈ 51.2 µM); Stability mixed with excipients, conclusion [4]: stable
non-hygroscopic	good solubility	99.70%	99.88%	99.87%	99.88%	99.87%	99.85%	99.81%	stable	C[C@H](Nc1ncnc(N)c1C#N)c1cc2ncc(Cl)n2nc1-c1ccccc1 [Form V, (S)-4-amino-6-((1-(3-chloro-6-phenylimidazo[1,2-b]pyridazin-7-yl)ethyl)amino)pyrimidine-5-carbonitrile]	Solubility ([2]; buffer pH 1.2, shaken at 37° C. water bath for 2 hours): 9640 µg/mL (≈ 24700 µM); Solubility ([2]; buffer pH 2.1, shaken at 37° C. water bath for 2 hours): 580 µg/mL (≈ 1480 µM); Solubility ([2]; buffer pH 4.5, shaken at 37° C. water bath for 2 hours): 20 µg/mL (≈ 51.2 µM); Solubility ([2]; buffer pH 6.8, shaken at 37° C. water bath for 2 hours): 20 µg/mL (≈ 51.2 µM)
